Test results reported in patent publication US5066489A (Cetus Corporation, priority 1990, dated 1991).

Columns and labels:
[1] = DTIC pharmacokinetics in patients (first two cycles, 12 patients); type: in vivo, human; conditions: effect of IL-2; first two cycles in 12 patients
Method: (§1) For the First Cycle--Patients were admitted to the hospital on a Sunday evening for a Hickman catheter placement on the succeeding Monday. On Day 1 (Tuesday), DTIC was administered by continuous 24 hour infusion at a dose of 1.0 gm/m^2 intravenously. Pharmacokinetic studies were performed on Days 1 and 2.
DTIC pharmokinetics were performed on the first two cycles in 12 patients.

metastatic melanoma = conditions: cited from earlier work
[2] = cited from earlier work
[3] = Phase I-II study of IL-2 plus DTIC in melanoma patients: toxicity; type: in vivo, human; conditions: DTIC 1.0 gm/m^2 24 h infusion
Method: Patients, between 18 to 70 years of age, were admitted for three, separate Phase I-II studies. Each patient had to meet the following criteria for entering the study:
1. Dose and Schedule--Twenty patients received three cycles of Interleukin-2 in combination with DTIC. Each cycle was 28 days in duration. All drugs were administered by hospital staff either while in-patient or in the out-patient clinic. Patients received 1.0 gm/m^2 of DTIC as an IV continuous infusion over 24 hours every 4 weeks.
as §1
The dose schedule was identical to that given for cycle two.

NC(=O)c1[nH]cnc1N [AIC, 5-aminoimidazole 4-carboxamide]
peak plasma levels [1]: not altered by IL-2

CN(C)N=Nc1[nH]cnc1C(N)=O [DTIC, dimethyl-triazeno-imidazole-carboxmide]
peak plasma levels [1]: not altered by IL-2
antitumor schedule dependency (metastatic melanoma; DTIC dose regimens): has not been observed
single agent response rate (metastatic melanoma; Roth and Kirkwood (1987)): 24%
most promising response rate (%) observed alone (metastatic melanoma; complete plus partial responses, treatment of melanoma, Roth (DTIC), Rosenberg et al 1987 (IL-2)): approximately 24%
dose responses (metastatic melanoma; five-day continuous infusions): equivalent dose responses
responsiveness of visceral metastases (gastrointestinal tract, liver, brain) (metastatic melanoma; versus soft tissue disease): relatively less responsive than soft tissue disease
hematologic and GI toxicities ([2]; DTIC dose regimen): vary with the DTIC dose regimen used
acute toxicity ([2]; five-day continuous infusions): least acute toxicity
dosage adjustments for nausea/vomiting or for myelosuppression [3]: required no dosage adjustments
mild nausea and vomiting ([3]; of the courses): 96%
